In PubChem BioAssay AID248 (DTP/NCI, 2004):
Where “and” joins values, the source holds several entries; their conditions need not be identical. Identical values can stand only once. Toxic doses and inconclusive results are not listed. No stated cut-off is given here; in the data, active means T/C of 150% or more; inactive means T/C below 125%.

Tested on: L1210 leukemia ip in BDF1 mice, survival T/C
Assay: NCI In Vivo Anticancer Drug Screen. Data for tumor model L1210 Leukemia (intraperitoneal) in B6D2F1 (BDF1) mice
Conditions: endpoint: mean survival time, higher = longer survival
In short: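 Transplanted-tumor mice were given test agent; controls received vehicle only. Survival readings from the two groups were divided (treated over control).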

[1] = dose: 100.0 mg/kg/injection, schedule: Q01DX009 (ip), vehicle: saline with Tween-80
[2] = dose: 200.0 mg/kg/injection, schedule: Q01DX009 (ip), vehicle: saline with Tween-80
[3] = dose: 400.0 mg/kg/injection, schedule: Q01DX009 (ip), vehicle: saline with Tween-80
[4] = dose: 100.0 mg/kg/injection, schedule: Q01DX001 (ip), vehicle: Klucel (hydroxypropylcellulose) (HPC)
[5] = dose: 400.0 mg/kg/injection, schedule: Q01DX001 (ip), vehicle: Klucel (hydroxypropylcellulose) (HPC)

Measured: T/C

C=CCNC(=O)CS(=O)(=O)NCC=C
inactive: dose: 100.0 mg/kg/injection, schedule: Q04DX003 (ip), vehicle: carboxymethylcellulose (CMC) 95 % of control | dose: 200.0 mg/kg/injection, schedule: Q04DX003 (ip), vehicle: carboxymethylcellulose (CMC) 96 % of control | dose: 400.0 mg/kg/injection, schedule: Q04DX003 (ip), vehicle: carboxymethylcellulose (CMC) 117 % of control

NCCOP(=O)(O)OCC1OC(n2cnc3c(N)ncnc32)C(O)C1O (stereo not given)
inactive: dose: 100.0 mg/kg/injection, schedule: Q01DX005 (ip), vehicle: saline 92 % of control | dose: 200.0 mg/kg/injection, schedule: Q01DX005 (ip), vehicle: saline 92 % of control

O=C1NC(=S)N/C1=C/c1ccc2c(c1)CCC2
inactive: [1] 112 % of control | dose: 100.0 mg/kg/injection, schedule: Q04DX003 (ip), vehicle: saline with Tween-80 95 % of control | [2] 94 % of control | dose: 200.0 mg/kg/injection, schedule: Q04DX003 (ip), vehicle: saline with Tween-80 101 % of control | [3] 102 % of control | dose: 400.0 mg/kg/injection, schedule: Q04DX003 (ip), vehicle: saline with Tween-80 87 % of control

c1ccc(CC(CNCC2C(c3ccccc3)C2c2ccccc2)c2ccccc2)cc1 (stereo not given)
inactive: dose: 12.5 mg/kg/injection, schedule: Q04DX002 (ip), vehicle: saline with Tween-80 96 % of control | dose: 25.0 mg/kg/injection, schedule: Q04DX002 (ip), vehicle: saline with Tween-80 93 % of control | dose: 50.0 mg/kg/injection, schedule: Q04DX002 (ip), vehicle: saline with Tween-80 90 % of control

COc1ccc(C[n+]2cc([O-])on2)cc1
inactive: dose: 12.5 mg/kg/injection, schedule: Q01DX001 (ip), vehicle: Klucel (hydroxypropylcellulose) (HPC) 101 % of control | dose: 12.5 mg/kg/injection, schedule: Q04DX003 (ip), vehicle: Klucel (hydroxypropylcellulose) (HPC) 104 % of control | dose: 25.0 mg/kg/injection, schedule: Q01DX001 (ip), vehicle: Klucel (hydroxypropylcellulose) (HPC) 99 % of control | dose: 25.0 mg/kg/injection, schedule: Q04DX003 (ip), vehicle: Klucel (hydroxypropylcellulose) (HPC) 104 % of control | dose: 28.75 mg/kg/injection, schedule: Q01DX009 (ip), vehicle: Klucel (hydroxypropylcellulose) (HPC) 114 % of control | dose: 50.0 mg/kg/injection, schedule: Q01DX001 (ip), vehicle: Klucel (hydroxypropylcellulose) (HPC) 99 % of control | dose: 50.0 mg/kg/injection, schedule: Q04DX003 (ip), vehicle: Klucel (hydroxypropylcellulose) (HPC) 104 % of control | dose: 57.5 mg/kg/injection, schedule: Q01DX009 (ip), vehicle: Klucel (hydroxypropylcellulose) (HPC) 103 % of control | dose: 75.0 mg/kg/injection, schedule: Q04DX003 (ip), vehicle: other 106 % of control | [4] 102 % of control | dose: 115.0 mg/kg/injection, schedule: Q01DX009 (ip), vehicle: Klucel (hydroxypropylcellulose) (HPC) 120 % of control | dose: 115.0 mg/kg/injection, schedule: Q04DX003 (ip), vehicle: other 87 % of control | [5] 108 % of control

O=c1[nH]c(SCc2ccccc2[N+](=O)[O-])nc2nc[nH]c12
inactive: dose: 100.0 mg/kg/injection, schedule: Q01DX009 (ip), vehicle: Klucel (hydroxypropylcellulose) (HPC) 90 % of control | dose: 100.0 mg/kg/injection, schedule: Q04DX002 (ip), vehicle: Klucel (hydroxypropylcellulose) (HPC) 98 % of control | dose: 100.0 mg/kg/injection, schedule: Q04DX002 (ip), vehicle: saline 94 % of control | dose: 200.0 mg/kg/injection, schedule: Q01DX009 (ip), vehicle: Klucel (hydroxypropylcellulose) (HPC) 90 % of control | dose: 200.0 mg/kg/injection, schedule: Q04DX002 (ip), vehicle: Klucel (hydroxypropylcellulose) (HPC) 94 % of control | dose: 200.0 mg/kg/injection, schedule: Q04DX002 (ip), vehicle: saline 97 % of control | dose: 400.0 mg/kg/injection, schedule: Q01DX009 (ip), vehicle: Klucel (hydroxypropylcellulose) (HPC) 93 % of control | dose: 400.0 mg/kg/injection, schedule: Q04DX002 (ip), vehicle: Klucel (hydroxypropylcellulose) (HPC) 97 % of control | dose: 400.0 mg/kg/injection, schedule: Q04DX002 (ip), vehicle: saline 97 % of control

O=C(O)COCc1ccccc1
inactive: dose: 100.0 mg/kg/injection, schedule: Q04DX003 (ip), vehicle: saline sonified 97 % of control | dose: 200.0 mg/kg/injection, schedule: Q04DX003 (ip), vehicle: saline sonified 92 % of control | dose: 400.0 mg/kg/injection, schedule: Q04DX003 (ip), vehicle: saline sonified 92 % of control

CCCCCCCCCCCCCC(S(=O)(=O)CC)S(=O)(=O)CC
inactive: [4] 89 % of control | dose: 200.0 mg/kg/injection, schedule: Q01DX001 (ip), vehicle: Klucel (hydroxypropylcellulose) (HPC) 87 % of control | [5] 87 % of control

COc1ccc(CN2CCCN(Cc3ccc(OC)cc3OC)C2c2cc([N+](=O)[O-])ccc2O)c(OC)c1
inactive: dose: 50.0 mg/kg/injection, schedule: Q01DX001 (ip), vehicle: carboxymethylcellulose (CMC) 107 % of control | dose: 100.0 mg/kg/injection, schedule: Q01DX001 (ip), vehicle: carboxymethylcellulose (CMC) 98 % of control | dose: 200.0 mg/kg/injection, schedule: Q01DX001 (ip), vehicle: carboxymethylcellulose (CMC) 101 % of control | dose: 400.0 mg/kg/injection, schedule: Q01DX001 (ip), vehicle: carboxymethylcellulose (CMC) 98 % of control

CCN(CC)C(=O)OCCN1C(=O)C2C3CCC(O3)C2C1=O (stereo not given)
inactive: dose: 100.0 mg/kg/injection, schedule: Q04DX003 (ip), vehicle: Klucel (hydroxypropylcellulose) (HPC) 93 % of control | dose: 200.0 mg/kg/injection, schedule: Q04DX003 (ip), vehicle: Klucel (hydroxypropylcellulose) (HPC) 92 % of control | dose: 400.0 mg/kg/injection, schedule: Q04DX003 (ip), vehicle: Klucel (hydroxypropylcellulose) (HPC) 93 % of control

Cc1ccc(SC(=O)Cc2ccc([N+](=O)[O-])cc2)cc1
inactive: [1] 97 % of control | [2] 86 % of control | [3] 93 % of control

CSc1nc(Cl)cc(N2CC2C)n1 (stereo not given)
inactive: dose: 25.0 mg/kg/injection, schedule: Q01DX Z (ip), vehicle: methylcellulose (MC) 96 % of control

O=C(Nc1ccc(S(=O)(=O)Nc2ncccn2)cc1)c1ccc(C(=O)Nc2ccc(S(=O)(=O)Nc3ncccn3)cc2)cc1
inactive: dose: 50.0 mg/kg/injection, schedule: Q01DX015 (ip), vehicle: methylcellulose (MC) 100 % of control | dose: 100.0 mg/kg/injection, schedule: Q01DX015 (ip), vehicle: methylcellulose (MC) 103 % of control | dose: 200.0 mg/kg/injection, schedule: Q01DX015 (ip), vehicle: methylcellulose (MC) 97 % of control | dose: 400.0 mg/kg/injection, schedule: Q01DX015 (ip), vehicle: methylcellulose (MC) 106 % of control

CCN(CC)C(C)CNc1cc(C)nc(/N=C(\N)Nc2ccc(Cl)c(Cl)c2)n1 (stereo not given)
inactive: dose: 2.35 mg/kg/injection, schedule: Q01DX009 (ip), vehicle: Klucel (hydroxypropylcellulose) (HPC) 110 % of control | dose: 4.69 mg/kg/injection, schedule: Q01DX009 (ip), vehicle: Klucel (hydroxypropylcellulose) (HPC) 100 % of control | dose: 9.38 mg/kg/injection, schedule: Q01DX009 (ip), vehicle: Klucel (hydroxypropylcellulose) (HPC) 98 % of control and 100 % of control | dose: 37.5 mg/kg/injection, schedule: Q01DX009 (ip), vehicle: Klucel (hydroxypropylcellulose) (HPC) 100 % of control | dose: 75.0 mg/kg/injection, schedule: Q01DX001 (ip), vehicle: other 97 % of control

CCOP(=O)(OCC)OCCOCCOP(=O)(OCC)OCC
inactive: dose: 8.8 mg/kg/injection, schedule: Q01DX Z (ip), vehicle: saline 98 % of control | dose: 13.3 mg/kg/injection, schedule: Q01DX Z (ip), vehicle: saline 110 % of control | dose: 20.0 mg/kg/injection, schedule: Q01DX Z (ip), vehicle: saline 96 % of control

CCOC1OCN(C)CC1(C)C (stereo not given)
inactive: dose: 50.0 mg/kg/injection, schedule: Q01DX009 (ip), vehicle: saline 93 % of control | dose: 100.0 mg/kg/injection, schedule: Q01DX009 (ip), vehicle: saline 109 % of control | dose: 100.0 mg/kg/injection, schedule: Q04DX003 (ip), vehicle: saline 101 % of control | dose: 132.0 mg/kg/injection, schedule: Q01DX009 (ip), vehicle: saline sonified 113 % of control | dose: 200.0 mg/kg/injection, schedule: Q01DX009 (ip), vehicle: saline sonified 118 % of control | dose: 200.0 mg/kg/injection, schedule: Q04DX003 (ip), vehicle: saline 97 % of control

CCSC(SCC)C(NC(C)=O)C1OC(C)(C)OC1C(O)CO (stereo not given)
inactive: dose: 50.0 mg/kg/injection, schedule: Q01DX001 (ip), vehicle: saline 97 % of control | dose: 100.0 mg/kg/injection, schedule: Q01DX001 (ip), vehicle: saline 103 % of control | dose: 200.0 mg/kg/injection, schedule: Q01DX001 (ip), vehicle: saline 103 % of control | dose: 400.0 mg/kg/injection, schedule: Q01DX001 (ip), vehicle: saline 103 % of control
